Source: publication PMC11940194, “Synthesis, Antiproliferative Activity, and ADME Profiling of Novel Racemic and Optically Pure Aryl-Substituted Purines and Purine Bioisosteres” (Biomolecules, 2025)

Tests used:
[1] = test system: pancreatic ductal adenocarcinoma (CFPAC-1) cells; assay: Antiproliferative MTT assay, CFPAC-1; type: cell-based, human; conditions: Homo sapiens, CFPAC-1, 72 h, 72 h incubation, MTT; mean ± SD
Method in brief: (§1)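 3000 cells/well (tumour) or 5000 (fibroblasts), DMEM/MEM + 10% FBS, 37 °C. Cpd 0.01–100 µM, 72 h. MTT; IC50 via linear regression; n = 4 × 2 expts.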

[2] = test system: breast adenocarcinoma (MCF7) cells; assay: Antiproliferative MTT assay, MCF-7; type: cell-based, human; conditions: Homo sapiens, MCF7; 72 h incubation, MTT; mean ± SD
Method in brief: as §1

[3] = test system: MCF-7, CFPAC-1, HT-29, HepG2 tumor cell lines and HFF-1 fibroblasts; assay: Antiproliferative activity, whole cell line panel; type: cell-based, human; conditions: tested cell lines
Procedure: The human ATCC tumor cell lines breast adenocarcinoma (MCF7), colorectal carcinoma (HT-29), pancreatic ductal adenocarcinoma (CFPAC-1), hepatocellular carcinoma (HepG2), and normal skin fibroblasts (HFF) derived from ATCC (American Type Culture Collection) were cultured in Dulbecco’s Modified Eagle Medium (DMEM) or Minimum Essential Medium (MEM) supplemented with 10% fetal bovine serum (FBS), 2 mM L-glutamine, 100 U/mL penicillin, and 100 µg/mL streptomycin (Lonza, Basel, Switzerland) in a humidified atmosphere with 5% CO2 at 37 °C. For the experiment, carcinoma cell lines and normal human cell lines were seeded in 96-well microtiter plates at a density of 3000 cells per well and 5000 cells per well, respectively, depending on the doubling time of the specific cell line. The test substances were then added at fivefold, tenfold dilutions (0.01 to 100 µM), freshly prepared in the growth medium on the day of testing, and incubated for a further 72 h. After 72 h of incubation, the growth rate of the cells was determined using the MTT assay according to the manufacturer’s guidelines. […] The IC50 values were calculated from the dose–response curves using linear regression analysis. The experiment was performed in tetraplicates in two individual experiments.
Newly synthesized compounds were evaluated for their cytotoxic activity in vitro against four human cancer cell lines, including human breast adenocarcinoma (MCF-7), ductal pancreatic adenocarcinoma (CFPAC-1), colorectal carcinoma (HT-29), and hepatocellular carcinoma (HepG2), as well as on non-cancerous skin fibroblasts (HFF-1), to check for non-specific toxicity. Furthermore, 5-Fluorouracil (5-FU) was used as a reference drug. The results are expressed as 50% inhibitory concentration (IC50) values and are listed in Table 2, Table 3, Table 4 and Table 5.

[4] = test system: hepatocellular carcinoma (HepG2) cells; assay: Antiproliferative MTT assay, HepG2; type: cell-based, human; conditions: for IC50: Homo sapiens, HepG2, 72 h, 72 h incubation, MTT, mean ± SD; for SI (HepG2): SI = [IC50 HFF]/[IC50 HepG2]
Method in brief: as §1

[5] = test system: colorectal carcinoma (HT-29) cells; assay: Antiproliferative MTT assay, HT-29; type: cell-based, human; conditions: for IC50: Homo sapiens, HT-29, 72 h, 72 h incubation, MTT, mean ± SD; for SI (HT-29): SI = [IC50 HFF]/[IC50 HT-29]
Method in brief: as §1

[6] = test system: normal skin fibroblasts (HFF-1); assay: Cytotoxicity MTT assay, normal skin fibroblasts; type: cell-based, human; conditions: Homo sapiens, HFF-1, 72 h, 72 h incubation, mean ± SD
Method in brief: as §1

[7] = Metabolic stability in mouse liver microsomes; type: in vitro ADME; conditions: mouse liver microsomes
Excerpt: Mouse liver microsomes were obtained from Corning Life Sciences (Corning, NY, USA). DMSO, nicotinamide adenine dinucleotide phosphate (NADP), glucose-6-phosphate, glucose-6-phosphate dehydrogenase, magnesium chloride, propranolol, caffeine, diclofenac, and phosphate-buffered saline (PBS) were purchased from Sigma (St. Louis, MO, USA). Acetonitrile (ACN) and methanol (MeOH) were obtained from Merck (Darmstadt, Germany). Testosterone was purchased from Steraloids (Newport, RI, USA). Metabolic stability was assessed in mouse liver microsomes. Compounds (final concentration of 1 µM, 0.03% DMSO v/v) were incubated in duplicate in phosphate buffer (50 mM, pH 7.4) at 37 °C together with mouse liver microsomes in the absence and presence of the NADPH cofactor (0.5 mM nicotinamide adenine dinucleotide phosphate, 5 mM glucose-6-phosphate, 1.5 U/mL glucose-6-phosphate dehydrogenase, and 0.5 mM magnesium chloride). Incubation and sampling were performed on a Freedom EVO 200 (Tecan, Männedorf, CH, Switzerland) at […], 10, 20, 30, 45, and 60 min. The reaction was quenched using 3 volumes of a mixture of ACN/MeOH (2:1) containing internal standard (diclofenac), centrifuged, and the supernatants were analyzed using LC-MS/MS. The metabolic activity of the microsomes was verified via simultaneous analysis of several controls including testosterone, propranolol, and caffeine. The in vitro half-life (t1/2) was calculated using GraphPad Prism (v9.0 software) non-linear regression of % of parent compound remaining versus time. In vitro clearance, expressed as µL/min/mg, was estimated from the in vitro half-life (t1/2) and normalized for the protein amount in the incubation mixture, assuming 52.5 mg of protein per gram of liver and using constant values for mouse liver weight/body weight [87.5 g/kg] and mouse liver blood flow (LBF) [131 mL/min/kg].
(§2) All samples were quantified using tandem mass spectrometry coupled to liquid chromatography. Samples were analyzed on a Sciex API4000 Triple Quadrupole Mass Spectrometer (Sciex, Division of MDS Inc., Toronto, Canada) coupled to a Shimadzu Nexera X2 UHPLC frontend (Kyoto, Japan). Samples were injected onto a UHPLC column (HALO2 C18, 2.1 × 20 mm, 2 µm or Luna Omega 1.6 µm Polar C18 100A, 30 × 2.1 mm) and eluted with a gradient at 50 °C. The mobile phase was composed of acetonitrile/water mixture (9/1, with 0.1% formic acid) and 0.1% formic acid in deionized water. The flow rate was 0.7 mL/min under gradient conditions, leading to a total run time of 1.5–2 min. A positive ion mode with turbo spray, an ion source temperature of 550 °C, and a dwell time of 150 ms were utilized for mass spectrometric detection. Quantitation was performed using multiple reaction monitoring (MRM) at the specific transitions for each compound.

[8] = test system: MDCKII-MDR1 cells (P-glycoprotein); assay: MDCKII-MDR1 permeability assay; type: in vitro ADME, canine cells with over-expressed human MDR1 gene; conditions: permeability class
Procedure: (§3) MDCKII-hMDR1 cells were obtained from Solvo Biotechnology, Hungary. DMEM, fetal bovine serum, Glutamax-100, Antibiotic/Antimycotic, DMSO, Dulbecco’s phosphate-buffered saline, and MEM Non-essential amino acids were purchased from Sigma (St. Louis, MO, USA). Bi-directional permeability and P-glycoprotein substrate assessments were carried out in Madin-Darby canine epithelial cells with the over-expressed human MDR1 gene (MDCKII-MDR1), coding for P-glycoprotein. Experimental procedures, as well as cell culture conditions, were the same as previously described. Briefly, compounds (10 µM, 1% DMSO v/v) in duplicate were incubated at 37 °C for 60 min with cell monolayer on 24-well Millicell inserts (Millipore, Burlington, MA, USA) with and without the P-glycoprotein inhibitor Elacridar (2 µM, International Laboratory, San Francisco, CA, USA). The inhibition of P-glycoprotein was verified by amprenavir (Moravek Biochemicals Inc, Brea, CA, USA) and monolayer integrity using Lucifer yellow (Sigma, St. Louis, MO, USA). LC-MS/MS measured compound concentrations and Lucifer yellow was measured on an Infinite F500 (Tecan, Männedorf, CH, Switzerland) using excitation of 485 nm and emission of 530 nm.
as §2

[9] = test system: P-glycoprotein (human MDR1); assay: MDCKII-MDR1 permeability assay; type: in vitro ADME, canine cells with over-expressed human MDR1 gene; conditions: dog, MDCK-MDR1; for Papp A→B at 60 min, 10 µM / Papp B→A at 60 min, 10 µM: 37 °C; for efflux ratio at 60 min, 10 µM: <2 no efflux, >2 active efflux
Procedure: as §3, §2

SMILES | IC50 [1] [µM] | IC50 [2] [µM] | IC50 [4] [µM] | IC50 [5] [µM] | Clearance Class. [7] | Permeability [8] | Papp A→B at 60 min, 10 µM [9] [×10⁻⁶ cm/s] | Papp B→A at 60 min, 10 µM [9] [×10⁻⁶ cm/s] | efflux ratio at 60 min, 10 µM [9] | antiproliferative activity (in words) [3] | IC50 [6] [µM] | SI (HepG2) [4] | SI (HT-29) [5]
OCC(c1ccccc1)n1cc(Cn2cnc3ccccc32)nn1 (stereo not drawn) [Compound 31a, 1-((1-(2-Hydroxy-1-phenylethyl)-1H-1,2,3-triazol-4-yl)methyl)-1H-benzimidazole] | > 100 | > 100 | > 100 | > 100 | – | – | – | – | – | deprived of any activity | > 100 | – | –
OC(Cn1cc(Cn2cnc3ccccc32)nn1)c1ccccc1 (stereo not drawn) [Compound 31b, 1-((1-(2-Hydroxy-2-phenylethyl)-1H-1,2,3-triazol-4-yl)methyl)-1H-benzimidazole] | > 100 | 91 ± 7.2 | > 100 | > 100 | – | – | – | – | – | deprived of any activity | > 100 | – | –
OCC(c1ccccc1)n1cc(Cn2cnc3c(Cl)nccc32)nn1 (stereo not drawn) [Compound 46a, 4-Chloro-1-((1-(2-hydroxy-1-phenylethyl)-1H-1,2,3-triazol-4-yl)methyl)-1H-imidazo[4,5-c]pyridine] | > 100 | > 100 | > 100 | > 100 | – | – | – | – | – | deprived of any activity | > 100 | – | –
OC(Cn1cc(Cn2cnc3c(Cl)nccc32)nn1)c1ccccc1 (stereo not drawn) [Compound 46b, 4-Chloro-1-((1-(2-hydroxy-2-phenylethyl)-1H-1,2,3-triazol-4-yl)methyl)-1H-imidazo[4,5-c]pyridine] | > 100 | > 100 | > 100 | > 100 | – | – | – | – | – | deprived of any activity | > 100 | – | –

Further lines, with some results ahead:

IC50 [1] [µM] | IC50 [2] [µM] | IC50 [4] [µM] | IC50 [5] [µM] | Clearance Class. [7] | Permeability [8] | Papp A→B at 60 min, 10 µM [9] [×10⁻⁶ cm/s] | Papp B→A at 60 min, 10 µM [9] [×10⁻⁶ cm/s] | efflux ratio at 60 min, 10 µM [9] | SMILES | antiproliferative activity (in words) [3] | IC50 [6] [µM] | SI (HepG2) [4] | SI (HT-29) [5]
> 100 | > 100 | > 100 | > 100 | – | – | – | – | – | OCC(c1ccccc1)n1cc(Cn2ccc3ccccc32)nn1 (stereo not drawn) [Compound 26a, 1-((1-(2-Hydroxy-1-phenylethyl)-1H-1,2,3-triazol-4-yl)methyl)-1H-indole] | deprived of any activity | > 100 | – | –
> 100 | > 100 | > 100 | > 100 | – | – | – | – | – | OC(Cn1cc(Cn2ccc3ccccc32)nn1)c1ccccc1 (stereo not drawn) [Compound 26b, 1-((1-(2-Hydroxy-2-phenylethyl)-1H-1,2,3-triazol-4-yl)methyl)-1H-indole] | deprived of any activity | > 100 | – | –
16 ± 2.6 | 36 ± 23.1 | 8 ± 0.6 | 6 ± 0.6 | LOW (<30% low) | MODERATE | 2.2 | 45.2 | 21 | O[C@@H](Cn1cc(Cn2cnc3c(Cl)ncnc32)nn1)c1ccc(C(F)(F)F)cc1 [Compound (R)-40b, (R)-6-Chloro-9-((1-(2-hydroxy-2-(4-(trifluoromethyl)phenyl)ethyl)-1H-1,2,3-triazol-4-yl)methyl)-9H-purine] | – | 6 ± 4.8 | 0.7 | 1.0
19 ± 2.4 | 10 ± 0.4 | 7 ± 1.5 | 5 ± 0.1 | LOW (<30% low) | MODERATE | 2.2 | 42.9 | 19.5 | O[C@H](Cn1cc(Cn2cnc3c(Cl)ncnc32)nn1)c1ccc(C(F)(F)F)cc1 [Compound (S)-40b, (S)-6-Chloro-9-((1-(2-hydroxy-2-(4-(trifluoromethyl)phenyl)ethyl)-1H-1,2,3-triazol-4-yl)methyl)-9H-purine] | – | 12 ± 3.4 | 1.7 | 2.4
